Reference: paper doi:10.1101/2021.10.04.463106, “A high throughput screening assay for inhibitors of SARS-CoV-2 pseudotyped particle entry” (bioRxiv, 2021)
Like-named read-outs stand apart in the source and are kept apart here.

Experiments:
Assay in all cases: microbe, parasite or virus in culture
Format in all cases: cell-based
[1] = tested on: SARS-CoV-2-S PP (Wuhan-Hu-1 spike)
[2] = tested on: SARS-CoV-2-S PP (B.1.1.7 spike variant)
[3] = tested on: SARS-CoV-2-S PP (B.1.351 spike variant)
[4] = Severe acute respiratory syndrome coronavirus 2, read-out: EC50, Wuhan-Hu-1 PP
[5] = Severe acute respiratory syndrome coronavirus 2, read-out: EC50, B.1.1.7 PP
[6] = Severe acute respiratory syndrome coronavirus 2, read-out: EC50, B.1.351 PP

Row | SMILES | EC50 [1, 4] [µM] | EC50 [2, 5] [µM] | EC50 [3, 6] [µM] | EC50 ([1]; Severe acute respiratory syndrome coronavirus 2, read-out: EC50 in Wuhan-Hu-1 SARS-CoV-2-S PP entry assay) [µM] | shift in potency between the Wuhan-Hu-1 spike sequence and the B.1.1.7 spike variant [2] [fold] | EC50 ([2]; Severe acute respiratory syndrome coronavirus 2, read-out: EC50 in B.1.1.7 SARS-CoV-2-S PP entry assay) [µM] | EC50 ([3]; Severe acute respiratory syndrome coronavirus 2, read-out: EC50 in B.1.351 SARS-CoV-2-S PP entry assay) [µM]
1 | CCOC(=O)[C@H]1O[C@@H]1C(=O)N[C@@H](CC(C)C)C(=O)NCCC(C)C [Aloxistatin, aloxistatin] | 0.8 | 0.46 | 1.21 | – | – | – | –
2 | COc1cc(N2CCC(N3CCN(C)CC3)CC2)ccc1Nc1ncc(Cl)c(Nc2ccccc2P(C)(C)=O)n1 [Brigatinib, brigatinib] | 0.038 | 0.054 | 0.023 | – | – | – | –
3 | Cc1cccc(/C=N/Nc2cc(N3CCOCC3)nc(OCCc3ccccn3)n2)c1 [Apilimod, apilimod] | – | – | – | 0.0092 | 7 | 0.0013 | 0.0047
4 | CCCC[C@@H](C=O)NC(=O)[C@H](CC(C)C)NC(=O)OCc1ccccc1 [Calpeptin, calpeptin] | 0.87 | 0.31 | 1.07 | – | – | – | –
